Data on 15 compounds can be found in ChEMBL document CHEMBL1909046, “DrugMatrix in vitro pharmacology data”.

A short description of test [1]: DRUGMATRIX: Glutamate, NMDA, Agonism radioligand binding (ligand: [3H] CGP-39653). The class given is cell membranes, Rattus norvegicus, Wistar, Cerebral cortex, Membrane. As to conditions: Not Active = under 50% inhibition at 10 µM.
For test [2], the target named is T1, Muscarinic acetylcholine receptor M2 (Homo sapiens, UniProt P08172). Also: in other assays of this panel Not Active means under 50% inhibition at 10 µM.
T1 sequence (P08172 whole entry): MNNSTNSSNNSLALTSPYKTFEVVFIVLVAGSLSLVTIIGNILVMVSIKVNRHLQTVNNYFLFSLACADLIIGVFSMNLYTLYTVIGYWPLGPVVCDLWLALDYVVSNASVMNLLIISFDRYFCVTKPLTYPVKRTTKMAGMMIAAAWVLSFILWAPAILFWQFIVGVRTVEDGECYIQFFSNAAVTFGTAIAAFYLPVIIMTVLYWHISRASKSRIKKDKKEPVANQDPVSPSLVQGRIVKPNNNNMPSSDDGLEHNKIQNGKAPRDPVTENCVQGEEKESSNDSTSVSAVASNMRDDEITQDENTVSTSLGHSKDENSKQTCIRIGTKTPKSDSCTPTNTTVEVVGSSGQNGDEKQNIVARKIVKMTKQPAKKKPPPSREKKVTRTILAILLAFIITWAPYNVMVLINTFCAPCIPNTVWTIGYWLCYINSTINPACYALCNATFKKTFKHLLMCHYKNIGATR
The class given is cell membranes, CHO-K1, Membrane.

The nature of test [3]: DRUGMATRIX: Atrial Natriuretic Factor (ANF) radioligand binding (ligand: [125I] ANF (rat)). The class given is cell membranes, Cavia porcellus, Dunkin-Hartley, Adrenal gland, Membrane. The settings on record: Not Active = under 50% inhibition at 10 µM.
The nature of test [4]: DRUGMATRIX: GABAA, Flunitrazepam, Central radioligand binding (ligand: [3H] Flunitrazepam). The class given is cell membranes, Rattus norvegicus, Wistar, Brain, Membrane. The settings on record: Not Active = under 50% inhibition at 10 µM.
Test [5] addresses Prostaglandin G/H synthase 1 (Homo sapiens, UniProt P23219). The test can be described thus: biochemical. The class given is tissue-based, Platelet. As to conditions: platelet.
The target in test [6] is Substance-P receptor (Homo sapiens, UniProt P25103). The class given is cell membranes, CHO, Membrane. The settings on record: cho. Also: in other assays of this panel Not Active means under 50% inhibition at 10 µM.
The target of test [7] is Glycine receptor (Rattus norvegicus, UniProt P22771+P24524+P07727+P20781). The class given is cell membranes, Wistar, Spinal cord, Membrane. Also: in other assays of this panel Not Active means under 50% inhibition at 10 µM.

Sequence of Prostaglandin G/H synthase 1 (P23219 whole entry): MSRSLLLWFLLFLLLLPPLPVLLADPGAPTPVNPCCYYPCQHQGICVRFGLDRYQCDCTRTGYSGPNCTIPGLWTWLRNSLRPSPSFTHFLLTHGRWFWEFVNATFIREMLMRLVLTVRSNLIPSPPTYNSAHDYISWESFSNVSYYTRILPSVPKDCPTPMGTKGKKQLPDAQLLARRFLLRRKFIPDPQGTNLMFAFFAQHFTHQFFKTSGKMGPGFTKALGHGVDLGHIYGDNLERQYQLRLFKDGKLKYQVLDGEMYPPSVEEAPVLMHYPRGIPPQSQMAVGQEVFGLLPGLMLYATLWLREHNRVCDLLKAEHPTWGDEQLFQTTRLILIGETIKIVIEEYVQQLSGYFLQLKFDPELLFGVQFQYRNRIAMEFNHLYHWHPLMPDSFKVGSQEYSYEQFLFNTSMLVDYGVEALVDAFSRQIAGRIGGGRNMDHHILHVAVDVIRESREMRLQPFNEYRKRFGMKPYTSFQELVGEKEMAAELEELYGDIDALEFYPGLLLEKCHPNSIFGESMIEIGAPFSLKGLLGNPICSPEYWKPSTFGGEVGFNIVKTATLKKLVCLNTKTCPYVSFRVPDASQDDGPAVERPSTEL
Sequence of Substance-P receptor (P25103 whole entry): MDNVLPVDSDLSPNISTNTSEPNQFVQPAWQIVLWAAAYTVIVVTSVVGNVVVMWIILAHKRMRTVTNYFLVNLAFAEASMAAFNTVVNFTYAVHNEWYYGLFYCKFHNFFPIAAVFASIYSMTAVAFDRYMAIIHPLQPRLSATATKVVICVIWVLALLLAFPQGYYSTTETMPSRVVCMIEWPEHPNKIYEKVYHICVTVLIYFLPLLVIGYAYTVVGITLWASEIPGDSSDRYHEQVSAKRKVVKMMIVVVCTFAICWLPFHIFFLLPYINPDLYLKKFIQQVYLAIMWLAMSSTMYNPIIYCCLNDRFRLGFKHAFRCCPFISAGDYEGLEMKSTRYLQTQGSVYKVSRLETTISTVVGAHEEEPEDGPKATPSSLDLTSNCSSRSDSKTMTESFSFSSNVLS

What is called IC50 is the concentration that gives 50% inhibition. As usually defined, the Ki is a measure of affinity in units of concentration, obtained from inhibition or displacement. In the case of `CCCCC1=NC2(CCCC2)C(=O)N1Cc1ccc(-c2ccccc2-c2nnn[nH]2)cc1` [IRBESARTAN], the IC50 entry in test [1], in test [2] (cho-k1), in test [3], in test [4], in test [5] and in test [6] was “Not Active” in each case. Besides, in test [7], the IC50 result was “Not Active”. Besides, the Ki result in test [1], in test [3] and in test [4] was “Not Active” in each case.
In the case of `CN1CCC(=C2c3ccccc3CC(=O)c3sccc32)CC1` [KETOTIFEN], the concentration for half-maximal inhibition (IC50) entry in test [1] was “Not Active”; in test [2] (read-out: IC50), 838 nM; in test [3], “Not Active”; in test [4], “Not Active”; in test [5] it was “Not Active”; in test [6] it was “Not Active”. Moreover, the half-maximal inhibitory concentration (IC50) result in test [7] is “Not Active”. Besides, the inhibition constant (Ki) entry in test [1] was “Not Active”; in test [2] (read-out: Ki), 298 nM; in test [3], “Not Active”; in test [4], “Not Active”.
Turning to `N[C@@H](Cn1ccc(=O)c(O)c1)C(=O)O` [L-MIMOSINE], the IC50 entry in test [1], in test [2] (cho-k1), in test [3], in test [4], in test [5] and in test [6] was “Not Active” each time. The IC50 entry in test [7] is on record as “Not Active”. The Ki result in test [1], in test [3] and in test [4] was “Not Active” each time.
Take `C[N+](C)(C)C[C@H](O)CC(=O)[O-]` [LEVOCARNITINE]: the IC50 result in test [1], in test [2] (cho-k1), in test [3], in test [4], in test [5] and in test [6] was “Not Active” in each case. The 50% inhibitory concentration (IC50) result in test [7] is recorded as “Not Active”. Further, the Ki result in test [1], in test [3] and in test [4] was “Not Active” throughout.
On to `C[C@H]1COc2c(N3CCN(C)CC3)c(F)cc3c(=O)c(C(=O)O)cn1c23.C[C@H]1COc2c(N3CCN(C)CC3)c(F)cc3c(=O)c(C(=O)O)cn1c23.O` [LEVOFLOXACIN], for which the half-inhibitory concentration (IC50) entry in test [1], in test [2] (cho-k1), in test [3], in test [4], in test [5] and in test [6] was “Not Active” each time. Further, in test [7], the half-maximal inhibitory concentration (IC50) entry is recorded as “Not Active”. The inhibition constant (Ki) entry in test [1], in test [3] and in test [4] was “Not Active” each time.
`CCn1cc(C(=O)O)c(=O)c2cc(F)c(N3CCNC(C)C3)c(F)c21` (stereo unspecified) [LOMEFLOXACIN]: the half-maximal inhibitory concentration (IC50) entry in test [1], in test [2] (cho-k1), in test [3], in test [4], in test [5] and in test [6] was “Not Active” throughout. For the same compound, in test [7], the IC50 entry is on record as “Not Active”. Also, the Ki entry in test [1], in test [3] and in test [4] was “Not Active” in each case.
`Cc1cccc(C)c1NC(=O)C1CCCCN1C` (stereo unspecified) [MEPIVACAINE]: the half-inhibitory concentration (IC50) entry in test [1], in test [2] (cho-k1), in test [3], in test [4], in test [5] and in test [6] was “Not Active” in each case. In addition, the half-maximal inhibitory concentration (IC50) result in test [7] is “Not Active”. The Ki result in test [1], in test [3] and in test [4] was “Not Active” each time.
Turning to `CN(C)C(=N)NC(=N)N` [METFORMIN], the IC50 entry in test [1], in test [2] (cho-k1), in test [3], in test [4], in test [5] and in test [6] was “Not Active” in each case. For the same compound, the IC50 entry in test [7] was “Not Active”. Also, the Ki entry in test [1], in test [3] and in test [4] was “Not Active” in each case.
For `CC(C)(C)NCC(O)COc1cccc2c1CC(O)C(O)C2` (stereo unspecified) [NADOLOL], the IC50 result in test [1], in test [2] (cho-k1), in test [3], in test [4], in test [5] and in test [6] was “Not Active” in each case. Also, the IC50 entry in test [7] is reported as “Not Active”. Besides, the inhibition constant (Ki) result in test [1], in test [3] and in test [4] was “Not Active” each time.
Take `C[C@]12CC[C@H]3[C@@H](CCC4=CC(=O)CC[C@@H]43)[C@@H]1CC[C@@H]2O` [NANDROLONE]: the IC50 result in test [1], in test [2] (cho-k1), in test [3], in test [4], in test [5] and in test [6] was “Not Active” in each case. Also, the 50% inhibitory concentration (IC50) result in test [7] is listed as “Not Active”. Moreover, the inhibition constant (Ki) entry in test [1], in test [3] and in test [4] was “Not Active” throughout.
Take `C[C@@H]1C/C=C/C=C/C=C/C=C/[C@H](O[C@@H]2O[C@H](C)[C@@H](O)[C@H](N)[C@@H]2O)C[C@@H]2O[C@](O)(C[C@@H](O)C[C@H]3O[C@@H]3/C=C/C(=O)O1)C[C@H](O)[C@H]2C(=O)O` [NATAMYCIN]: the IC50 result in test [1], in test [2] (cho-k1), in test [3], in test [4], in test [5] and in test [6] was “Not Active” in each case. Also, the IC50 result in test [7] was “Not Active”. For the same compound, the Ki result in test [1], in test [3] and in test [4] was “Not Active” in each case.
In the case of `CN(C)C(=O)Oc1cccc([N+](C)(C)C)c1.[Br-]` [NEOSTIGMINE BROMIDE], the half-maximal inhibitory concentration (IC50) result in test [1], in test [2] (cho-k1), in test [3], in test [4], in test [5] and in test [6] was “Not Active” in each case. In test [7], the half-maximal inhibitory concentration (IC50) entry is “Not Active”. For the same compound, the inhibition constant (Ki) result in test [1], in test [3] and in test [4] was “Not Active” throughout.
As to `NC(=O)c1cccnc1` [NIACINAMIDE], the IC50 entry in test [1], in test [2] (cho-k1), in test [3], in test [4], in test [5] and in test [6] was “Not Active” each time. Also, the IC50 entry in test [7] is given as “Not Active”. Moreover, the inhibition constant (Ki) result in test [1], in test [3] and in test [4] was “Not Active” each time.
For the compound `CN1C(=O)CN=C(c2ccccc2)c2cc([N+](=O)[O-])ccc21` [NIMETAZEPAM], the half-inhibitory concentration (IC50) result in test [1] is “Not Active”; in test [2] (cho-k1), “Not Active”; in test [3], “Not Active”; in test [4] (read-out: IC50) it was 104 nM; in test [5] it was “Not Active”; in test [6], “Not Active”. Further, the IC50 entry in test [7] is on record as “Not Active”. Also, the Ki entry in test [1] is “Not Active”; in test [3], “Not Active”; in test [4] (read-out: Ki), 85 nM.
Regarding `COc1ccc2c(c1OC)C(=O)O[C@@H]2[C@H]1c2c(cc3c(c2OC)OCO3)CCN1C` [NOSCAPINE], the 50% inhibitory concentration (IC50) result in test [1], in test [2] (cho-k1), in test [3], in test [4], in test [5] and in test [6] was “Not Active” each time. Further, the concentration for half-maximal inhibition (IC50) result in test [7] is recorded as “Not Active”. For the same compound, the inhibitory constant (Ki) entry in test [1], in test [3] and in test [4] was “Not Active” in each case.
